The results in this text go back to US9371294B2, “Cycloalkenyl aryl derivatives for CETP inhibitor” (CHONG KUN DANG PHARMACEUTICAL CORP., priority 2011, dated 2016).

The IC50 is the point on the concentration scale where inhibition reaches its midpoint. A higher IC50 goes with weaker potency.

In this assay the target is T1, cholesteryl ester transfer protein (Homo sapiens, UniProt P11597).
T1 construct: As a source of cholesteryl ester transfer protein, plasma from healthy humans was used; from tissue; host or cells: plasma from healthy humans
T1 sequence (P11597 18-493): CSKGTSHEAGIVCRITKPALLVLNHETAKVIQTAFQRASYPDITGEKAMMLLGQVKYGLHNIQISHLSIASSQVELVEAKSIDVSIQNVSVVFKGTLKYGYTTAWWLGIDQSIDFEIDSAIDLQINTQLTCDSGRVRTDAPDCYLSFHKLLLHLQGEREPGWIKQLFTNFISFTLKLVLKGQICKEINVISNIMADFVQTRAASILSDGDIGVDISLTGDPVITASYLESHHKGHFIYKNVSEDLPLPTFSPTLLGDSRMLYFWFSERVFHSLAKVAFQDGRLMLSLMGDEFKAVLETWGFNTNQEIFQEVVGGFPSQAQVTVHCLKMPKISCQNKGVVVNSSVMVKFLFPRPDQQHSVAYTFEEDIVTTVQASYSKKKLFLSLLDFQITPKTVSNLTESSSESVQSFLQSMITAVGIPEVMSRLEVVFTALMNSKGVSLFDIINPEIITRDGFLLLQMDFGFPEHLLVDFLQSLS
The assay can be described thus: In vitro test for the ability to inhibit cholesteryl ester transfer. Format: biochemical. The following applies: [3H]-cholesteryl oleate transfer from rHDL-agarose to LDL; human plasma as CETP source; 37° C.; 16-10000 nM, duplicate. Summed up: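 Human plasma served as the CETP source, with human LDL (0.25 mg/ml) as acceptor and agarose-immobilised recombinant HDL carrying [3H]-cholesteryl oleate (0.25 mg/ml) as donor, at 37 °C. Compounds were run in duplicate at 16–10000 nM. Transferred radioactivity in the supernatant was counted by beta detection, and IC50 was fitted from the fraction of label transferred to LDL.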
`COc1cc(F)c(C(C)C)cc1C1=C(CN2C(=O)O[C@H](c3cc(C(F)(F)F)cc(C(F)(F)F)c3)[C@@H]2C)CN(C(C)C)CC1` [Compound 265, (4S,5R)-5-(3,5-bis(trifluoromethyl)phenyl)-3-((4-(4-fluoro-5-isopropyl-2-methoxyphenyl)-1-isopropyl-1,2,5,6-tetrahydropyridin-3-yl)methyl)-4-methyloxazolidin-2-one] came in with a half-maximal inhibitory concentration (IC50) of 164 nM.

The molecule `COc1cc(F)c(C(C)C)cc1C1=C(CN2C(=O)O[C@H](c3cc(C(F)(F)F)cc(C(F)(F)F)c3)[C@@H]2C)CN(CC(F)(F)F)CC1` [Compound 268, (4S,5R)-5-(3,5-bis(trifluoromethyl)phenyl)-3-((4-(4-fluoro-5-isopropyl-2-methoxyphenyl)-1-(2,2,2-trifluoroethyl)-1,2,5,6-tetrahydropyridin-3-yl)methyl)-4-methyloxazolidin-2-one] yielded a 50% inhibitory concentration (IC50) of 46 nM. With `COC(=O)CCc1ccc(OC)c(C2=C(CN3C(=O)O[C@H](c4cc(C(F)(F)F)cc(C(F)(F)F)c4)[C@@H]3C)CC(C)(C)CC2)c1` [Compound 272, methyl 3-(3-(2-(((4S,5R)-5-(3,5-bis(trifluoromethyl)phenyl)-4-methyl-2-oxooxazolidin-3-yl)methyl)-4,4-dimethylcyclohex-1-enyl)-4-methoxyphenyl)propanoate] the figure was 222 nM.

In turn, `COc1ccc(CCC(=O)O)cc1C1=C(CN2C(=O)O[C@H](c3cc(C(F)(F)F)cc(C(F)(F)F)c3)[C@@H]2C)CC(C)(C)CC1` [Compound 273, 3-(3-(2-(((4S,5R)-5-(3,5-bis(trifluoromethyl)phenyl)-4-methyl-2-oxooxazolidin-3-yl)methyl)-4,4-dimethylcyclohex-1-enyl)-4-methoxyphenyl)propanoic acid] displayed an IC50 of 217 nM. Consider `COC(=O)C(C)(C)Cc1ccc(OC)c(C2=C(CN3C(=O)O[C@H](c4cc(C(F)(F)F)cc(C(F)(F)F)c4)[C@@H]3C)CC(C)(C)CC2)c1` [Compound 285, methyl 3-(3-(2-(((4S,5R)-5-(3,5-bis(trifluoromethyl)phenyl)-4-methyl-2-oxooxazolidin-3-yl)methyl)-4,4-dimethylcyclohex-1-enyl)-4-methoxyphenyl)-2,2-dimethylpropanoate], for which the half-maximal inhibitory concentration (IC50) was 33 nM. For `COc1ccc(CCC#N)cc1C1=C(CN2C(=O)O[C@H](c3cc(C(F)(F)F)cc(C(F)(F)F)c3)[C@@H]2C)CC(C)(C)CC1` [Compound 300, 3-(3-(2-(((4S,5R)-5-(3,5-bis(trifluoromethyl)phenyl)-4-methyl-2-oxooxazolidin-3-yl)methyl)-4,4-dimethylcyclohex-1-enyl)-4-methoxyphenyl)propanenitrile] the value was 1 nM; for `COc1cc(F)c(C2(C)CC2)cc1C1=C(CN2C(=O)O[C@H](c3cc(C(F)(F)F)cc(C(F)(F)F)c3)[C@@H]2C)CC2(CC1)CC2` [Compound 303, (4S,5R)-5-(3,5-bis(trifluoromethyl)phenyl)-3-((6-(4-fluoro-2-methoxy-5-(1-methylcyclopropyl)phenyl)spiro[2.5]oct-5-en-5-yl)methyl)-4-methyloxazolidin-2-one], 5 nM. `COC(=O)CC(C)(C)c1ccc(OC)c(C2=C(CN3C(=O)O[C@H](c4cc(C(F)(F)F)cc(C(F)(F)F)c4)[C@@H]3C)CC(C)(C)CC2)c1` [Compound 308, methyl 3-(3-(2-(((4S,5R)-5-(3,5-bis(trifluoromethyl)phenyl)-4-methyl-2-oxooxazolidin-3-yl)methyl)-4,4-dimethylcyclohex-1-enyl)-4-methoxyphenyl)-3-methylbutanoate] had an IC50 of 7 nM. This IC50 and that of the molecule before are within 1.5-fold of each other. In turn, `COc1ccc(CC2(C(=O)O)CCC2)cc1C1=C(CN2C(=O)O[C@H](c3cc(C(F)(F)F)cc(C(F)(F)F)c3)[C@@H]2C)CC(C)(C)CC1` [Compound 313, 1-(3-(2-(((4S,5R)-5-(3,5-bis(trifluoromethyl)phenyl)-4-methyl-2-oxooxazolidin-3-yl)methyl)-4,4-dimethylcyclohex-1-enyl)-4-methoxybenzyl)cyclobutanecarboxylic acid] registered a concentration for half-maximal inhibition (IC50) of 20 nM. This IC50 is about 2.9-fold higher than that of the molecule before. In turn, `COc1ncc(C(F)(F)F)cc1C1=C(CN2C(=O)O[C@H](c3cc(C(F)(F)F)cc(C(F)(F)F)c3)[C@@H]2C)CC(C)(C)CC1` [Compound 316, (4S,5R)-5-(3,5-bis(trifluoromethyl)phenyl)-3-((2-(2-methoxy-5-(trifluoromethyl)pyridin-3-yl)-5,5-dimethylcyclohex-1-enyl)methyl)-4-methyloxazolidin-2-one] yielded an IC50 of 30 nM. The molecule `COC(=O)Cc1cc2c(c(C3=C(CN4C(=O)O[C@H](c5cc(C(F)(F)F)cc(C(F)(F)F)c5)[C@@H]4C)CC(C)(C)CC3)c1)OCO2` [Compound 317, methyl 2-(7-(2-(((4S,5R)-5-(3,5-bis(trifluoromethyl)phenyl)-4-methyl-2-oxooxazolidin-3-yl)methyl)-4,4-dimethylcyclohex-1-enyl)benzo[d][1,3]dioxol-5-yl)acetate] returned a 50% inhibitory concentration (IC50) of 54 nM. `CNC(=O)C(C)(C)Cc1ccc(OC)c(C2=C(CN3C(=O)O[C@H](c4cc(C(F)(F)F)cc(C(F)(F)F)c4)[C@@H]3C)CC(C)(C)CC2)c1` [Compound 321, 3-(3-(2-(((4S,5R)-5-(3,5-bis(trifluoromethyl)phenyl)-4-methyl-2-oxooxazolidin-3-yl)methyl)-4,4-dimethylcyclohex-1-enyl)-4-methoxyphenyl)-N,2,2-trimethylpropanamide] had a 50% inhibitory concentration (IC50) of 104 nM. Against the preceding molecule, the IC50 is about 1.9-fold higher. In turn, `COC(=O)C1(Cc2ccc(OC)c(C3=C(CN4C(=O)O[C@H](c5cc(C(F)(F)F)cc(C(F)(F)F)c5)[C@@H]4C)CC(C)(C)CC3)c2)CCCC1` [Compound 323, methyl 1-(3-(2-(((4S,5R)-5-(3,5-bis(trifluoromethyl)phenyl)-4-methyl-2-oxooxazolidin-3-yl)methyl)-4,4-dimethylcyclohex-1-enyl)-4-methoxybenzyl)cyclopentanecarboxylate] yielded an IC50 of 58 nM. `COc1ccc(CC2(C(=O)O)CCCC2)cc1C1=C(CN2C(=O)O[C@H](c3cc(C(F)(F)F)cc(C(F)(F)F)c3)[C@@H]2C)CC(C)(C)CC1` [Compound 324, 1-(3-(2-(((4S,5R)-5-(3,5-bis(trifluoromethyl)phenyl)-4-methyl-2-oxooxazolidin-3-yl)methyl)-4,4-dimethylcyclohex-1-enyl)-4-methoxybenzyl)cyclopentanecarboxylic acid] registered an IC50 of 97 nM.

`COc1cc(F)c(CC(C)(C)C(N)=O)cc1C1=C(CN2C(=O)O[C@H](c3cc(C(F)(F)F)cc(C(F)(F)F)c3)[C@@H]2C)CC(C)(C)CC1` [Compound 329, 3-(5-(2-(((4S,5R)-5-(3,5-bis(trifluoromethyl)phenyl)-4-methyl-2-oxooxazolidin-3-yl)methyl)-4,4-dimethylcyclohex-1-enyl)-2-fluoro-4-methoxyphenyl)-2,2-dimethylpropanamide] gave an IC50 of 9 nM. This IC50 lies about 11-fold lower than the previous one. For `COc1ccc(-c2nnn(C)n2)cc1C1=C(CN2C(=O)O[C@H](c3cc(C(F)(F)F)cc(C(F)(F)F)c3)[C@@H]2C)CC(C)(C)CC1` [Compound 338, (4S,5R)-5-(3,5-bis(trifluoromethyl)phenyl)-3-((2-(2-methoxy-5-(2-methyl-2H-tetrazol-5-yl)phenyl)-5,5-dimethylcyclohex-1-enyl)methyl)-4-methyloxazolidin-2-one], half-maximal inhibition (IC50) required 35 nM.

As for `COc1ccc(CC(C)(C)c2nn[nH]n2)cc1C1=C(CN2C(=O)O[C@H](c3cc(C(F)(F)F)cc(C(F)(F)F)c3)[C@@H]2C)CC(C)(C)CC1` [Compound 340, (4S,5R)-5-(3,5-bis(trifluoromethyl)phenyl)-3-((2-(2-methoxy-5-(2-methyl-2-(2H-tetrazol-5-yl)propyl)phenyl)-5,5-dimethylcyclohex-1-enyl)methyl)-4-methyloxazolidin-2-one], the IC50 is 8 nM. `COc1ccc(CC(C)(C)c2nnn(C)n2)cc1C1=C(CN2C(=O)O[C@H](c3cc(C(F)(F)F)cc(C(F)(F)F)c3)[C@@H]2C)CC(C)(C)CC1` [Compound 341, (4S,5R)-5-(3,5-bis(trifluoromethyl)phenyl)-3-((2-(2-methoxy-5-(2-methyl-2-(2-methyl-2H-tetrazol-5-yl)propyl)phenyl)-5,5-dimethylcyclohex-1-enyl)methyl)-4-methyloxazolidin-2-one] gave an IC50 of 13 nM.

The molecule `COc1ncc(CC(C)(C)C(=O)O)cc1C1=C(CN2C(=O)O[C@H](c3cc(C(F)(F)F)cc(C(F)(F)F)c3)[C@@H]2C)CC(C)(C)CC1` [Compound 350, 3-(5-(2-(((4S,5R)-5-(3,5-bis(trifluoromethyl)phenyl)-4-methyl-2-oxooxazolidin-3-yl)methyl)-4,4-dimethylcyclohex-1-enyl)-6-methoxypyridin-3-yl)-2,2-dimethylpropanoic acid] registered an IC50 of 51 nM. As for `COc1ccc(Cl)cc1C1=C(CN2C(=O)O[C@H](c3cc(C(F)(F)F)cc(C(F)(F)F)c3)[C@@H]2C)CC(C)(C)CC1` [Compound 353, (4S,5R)-5-(3,5-bis(trifluoromethyl)phenyl)-3-((2-(5-chloro-2-methoxyphenyl)-5,5-dimethylcyclohex-1-enyl)methyl)-4-methyloxazolidin-2-one], the 50% inhibitory concentration (IC50) was 30 nM. Against the preceding molecule, the IC50 is about 1.7-fold lower.
